14 molecules from PubChem BioAssay (NCI) can be followed below.

Holding throughout (assay): NCI tumour cell line growth inhibition, 48 h
The subject of assay [1] is A498 renal.
In assay [2] the test system is HL-60(TB) leukemia.
The subject of assay [3] is NCI-H522 lung.
Assay [4] deals with K-562 leukemia.
The subject of assay [5] is OVCAR-3 ovarian.
Assay [6] concerns NCI-H460 lung.
Assay [7] relates to LOX IMVI melanoma.
Assay [8] has as its system OVCAR-8 ovarian.
Assay [9] has as its system SF-295 CNS.

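All cell lines were grown in 96-well plates and treated with compound for 48 hours. The concentration for 50% growth inhibition is given as GI50. TGI marks complete inhibition of growth.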

Consider `O=C(O)CCC(NC(=O)c1ccc(Nc2nc3ccccc3nc2-c2cccs2)cc1)C(=O)O` (stereo unspecified), for which the TGI in assay [1], in [2], in assay [3], in assay [4], in assay [5] and in assay [6] was > 100 µM in each case. Besides, the TGI in [7], in assay [8] and in assay [9] was > 100 µM throughout.

Consider `COC(=O)c1ccccc1NC(=O)C(=O)Cc1nc2c3c(ccc2[nH]c1=O)C(=O)c1ccccc1C3=O`, for which the TGI was > 100 µM in assay [1]; 35.7 µM in assay [3]; > 100 µM in [4]; > 100 µM in assay [5]; > 100 µM in assay [6]; 44.6 µM in assay [7]. The TGI in [8] is > 100 µM.

Consider `OCC1=CC(NC2CC(CO)C(O)C(O)C2O)C(O)C(O)C1O` (stereo unspecified), for which the TGI in assay [3], in assay [4], in assay [5], in [6], in [7] and in [8] was > 100 µM each time. Also, the TGI in assay [9] was > 100 µM.

As for `CCN(CC)CCSc1c2ccccc2nc2cc(NCC(=O)Nc3ccccc3-c3ccccc3NC(=O)CNc3ccc4c(SCCN(CC)CC)c5ccccc5nc4c3)ccc12`, the TGI in [1] is > 100 µM; in assay [2], 49.3 µM; in assay [3] it was > 100 µM; in [4], > 73.5 µM; in [5], > 100 µM; in [6], > 100 µM. Further, the TGI in assay [7], in assay [8] and in assay [9] was > 100 µM in each case.

Consider `O=C(CC(=O)c1cccc2ccccc12)C(=O)Nc1ccc(Cl)cc1`, for which the TGI in assay [1], in assay [2], in assay [3], in assay [4], in [5] and in assay [6] was > 100 µM each time. Also, the TGI in [7], in [8] and in assay [9] was > 100 µM each time.

With `CCOC(=O)CCC1(C(=O)OCC)CCCCC1=O` (stereo unspecified), the TGI in assay [1], in assay [2], in assay [3], in assay [4], in [5] and in [6] was > 100 µM throughout. The TGI in assay [7], in assay [8] and in [9] was > 100 µM throughout.

For the molecule `Cc1ccc(S(=O)(=O)OC[C@@H]2CO2)cc1`, the TGI in assay [1], in assay [2], in assay [4], in assay [5], in assay [6] and in assay [7] was > 100 µM each time. In addition, the TGI in assay [8] is > 100 µM.

Take `COc1ccccc1N1C(=O)C2c3[nH]c4ccccc4c3C3CCC(C(C)(C)C)CC3C2C1=O` (stereo unspecified): the TGI in [1], in [2], in assay [3], in assay [4], in assay [8] and in [9] was > 100 µM in each case.

Regarding `CC1(C(=O)O)CCC[C@@]2(C)C1CC[C@@]1(C)c3cocc3CCC21` (stereo partly specified), the TGI in assay [1], in [2], in assay [4], in [5], in [6] and in assay [7] was > 100 µM throughout. Further, the TGI in assay [8] and in assay [9] was > 100 µM throughout.

As to `CCN1CCN(Cc2ccc(NC(=O)c3cccc(C#Cc4cccc5[nH]nc(N)c45)c3)cc2C(F)(F)F)CC1`, the GI50 in assay [1] was 0.108 µM; in assay [2] it was 0.0979 µM; in [5] it was 0.615 µM; in assay [6] it was 0.39 µM; in [8] it was 0.395 µM. For the same molecule, the TGI in [1] was found to be 1.07 µM; in assay [2], 1.04 µM; in assay [4], 0.154 µM; in assay [5], 2.17 µM; in assay [6], 1.66 µM; in [8], 1.53 µM.

Regarding `Cc1c(C(=O)CC(=O)C(=O)Nc2ccccc2C(F)(F)F)[n+](=O)c2ccccc2n1[O-]`, the TGI in assay [1] is > 100 µM; in assay [2] it was 66.2 µM; in [3], 35.8 µM; in assay [4], 93.2 µM; in assay [5] it was 8.37 µM; in [6], 69.4 µM. Besides, the TGI in [7] was 63.8 µM; in assay [8], 61.3 µM; in assay [9], > 100 µM.

Regarding `CC(=O)[CH-]C(=O)c1ccccc1.CC(=O)[CH-]C(=O)c1ccccc1.CN(C)c1ccc([O-])cc1.CN(C)c1ccc([O-])cc1.Cl.[Ti+4]`, the GI50 in assay [1] was 31.1 µM; in [2], 20.9 µM; in assay [3], 12.3 µM; in assay [4], 9.89 µM; in assay [6] it was 15.1 µM; in [7], 26 µM. Moreover, the GI50 in assay [8] is 21.9 µM; in [9] it was 46.3 µM. Also, the TGI in assay [1] is > 100 µM; in assay [2] it was > 31.6 µM; in [3], 24 µM; in assay [4], > 31.6 µM; in assay [6] it was > 31.6 µM; in assay [7], > 100 µM. The TGI in assay [8] is > 31.6 µM; in assay [9] it was > 100 µM.

As for `COc1cnc2c(c1)C(=O)c1c-2n(CCCN2CCOCC2)c(=O)c2cc(F)ccc12`, the GI50 in [1] was 0.172 µM; in assay [2], 0.373 µM; in assay [4] it was 0.32 µM; in assay [5] it was 0.25 µM; in assay [6], 0.0573 µM; in assay [7], 0.161 µM. Further, the GI50 in assay [8] was 0.246 µM; in [9], 0.141 µM. For the same molecule, the TGI is 0.911 µM in assay [1]; 2.85 µM in [2]; > 100 µM in [4]; 2.37 µM in [5]; 0.487 µM in assay [6]; 0.387 µM in [7]. Also, the TGI was > 100 µM in [8] and 0.864 µM in assay [9].

With `NC1=NCCC1(c1ccccc1)c1ccccn1` (stereo unspecified), the TGI in assay [1], in assay [2], in assay [3], in [4], in [5] and in assay [6] was > 100 µM throughout. In addition, the TGI in [8] and in assay [9] was > 100 µM throughout.
